# Data taken from patent US4292318A, “Product and method for combating swine dysentery” (priority 1979, dated 1981).
# How the values were obtained:
# [1] = Acute toxicity by several modes of administration in four species; type: in vivo, and rabbit; settings: mice, rat, guinea pig, rabbit
# Description: (§1) The compound was tested for acute toxicity by several modes of administration in four species, namely mice, rat, guinea pig, and rabbit. […] The results are given below in Tables 3, 4, 5 and 6.
# [2] = Acute toxicity in the rat; type: in vivo; settings: for Dead/Treated within 21 days / Body weight (m ± SEM) in g. start / Body weight (m ± SEM) in g. Termination: First Experiment; for Body weight (m ± SEM) in g. Termination: Student's t test: t 0.05
# Description: as §1
# [3] = Teratogenetic study, mouse; type: in vivo; settings: 250 mg/kg/day oral, 3rd to 13th days
# Description: (§2) In view of the favourable results on chronic toxicity, a teratogenic study was conducted with male and female mice and rats.
# a. Animal Species: Mouse, Male and female mice housed together for 10
# Oral treatment from 3rd day to 13th days.
# [4] = Acute toxicity in the rabbit by esophageal administration; type: in vivo
# Description: as §1
# Treponema hyodysenteriae = assay: In vitro test against Treponema hyodysenteriae (MIC, MBC); type: cell-based; settings: Brachyspira hyodysenteriae, lowest concentration in a dilution series where growth is inhibited, read-out: minimum inhibitory concentration
# Description: D was tested in vitro against Treponema hyodysenteriae by a known method. The minimum inhibitory concentration (the lowest concentration of compound in a dilution series where growth is inhibited) was 0.1 mcg/ml. The minimum bactericidal concentration (the lowest concentration of compound in which no viable treponemes are observed upon dilution and subculture from the broth onto blood agar plates) was greater than 0.1 mcg/ml but less than 1 mcg/ml.
# [5] = Subacute toxicity in female rats; type: in vivo, rat; settings: 2 g/kg/day by gastric lavage for 21 days
# General safety statement = settings: statement in the description
# [6] = Acute toxicity in female mice; type: in vivo
# Description: as §1
# [7] = Acute toxicity in the guinea pig by esophageal administration; type: in vivo
# Description: as §1
# [8] = test system: five strains of Vibrio cholerae; assay: In vitro effect on five strains of Vibrio cholerae (summary)
# [9] = Subacute toxicity in the mouse; type: in vivo; settings: for SGOT / SGPT: 24 hrs. after last dose
# Description: In view of the favourable acute toxicity data, the compound was administered orally in sub-acute, but relatively large, doses to mice and rats for 15 days. Data were collected on the effects on death rate, weight, liver, and kidneys.
# [10] = Chronic toxicity in the female mouse; type: in vivo; settings: for Dead/Treated / Body Weight in g (m ± SE) Start / Body Weight in g (m ± SE) Termination: gastric lavage, 18 weeks; for Fresh Organ-to-Body-Weight Ratio, Heart / Fresh Organ-to-Body-Weight Ratio, Kidneys / Fresh Organ-to-Body-Weight Ratio, Liver / Fresh Organ-to-Body-Weight Ratio, Lungs: m ± SE, 4 animals; for Blood Glucose / SGOT / SGPT: mean of 6 animals, 24 hours after last dose
# Description: In view of the favourable sub-acute toxicity, the chronic toxicity in female mice was studied.
# Teratogenetic study, rat = type: in vivo; settings: 250 mg/kg/day oral, same conditions as mouse
# Description: as §2
# b. Animal Species. Rat. Same experimental conditions as with the mouse.
# [11] = Teratogenic study with male and female mice and rats; type: in vivo
# Description: as §2
# [12] = Second Experiment, F, esophageal, 4000 mg/kg
# [13] = Second Experiment, F, intraperitoneal, 500 mg/kg
# [14] = Second Experiment, M, esophageal, 4000 mg/kg
# [15] = Second Experiment, M, intraperitoneal, 500 mg/kg
# [16] = 500 mg/kg/day by gastric lavage for 15 days
# [17] = in adraganth gum, 1 g/kg/day for 15 days
smiles,measurement,setting,value
"CCC(C)c1cnc(CC(C)C)c(=O)n1O [D, D-aspergillic acid]",acute toxicity,[1],low order of toxicity
same,Dead/Treated within 7 days,"[2]; Cumulative data regardless of sex, esophageal, 4000 mg/kg",0/16
same,Dead/Treated within 7 days,"[2]; Cumulative data regardless of sex, intraperitoneal, 500 mg/kg",4/16
same,Dead/Treated within 21 days,"[2]; F, endoperitoneal, 500 mg/kg",2/4
same,Body weight (m ± SEM) in g. start,"[2]; F, endoperitoneal, 500 mg/kg",206.2 ± 8.7 g
same,Dead/Treated within 21 days,"[2]; F, esophageal, 4000 mg/kg",0/4
same,Body weight (m ± SEM) in g. start,"[2]; F, esophageal, 4000 mg/kg",201.2 ± 4.2 g
same,Body weight (m ± SEM) in g. Termination,"[2]; F, esophageal, 4000 mg/kg",238.2 ± 12.1 g
same,Dead/Treated within 21 days,"[2]; M, endoperitoneal, 500 mg/kg",1/4
same,Body weight (m ± SEM) in g. start,"[2]; M, endoperitoneal, 500 mg/kg",234.0 ± 6.2 g
same,Body weight (m ± SEM) in g. Termination,"[2]; M, endoperitoneal, 500 mg/kg",314.3 ± 10.3 g
same,Dead/Treated within 21 days,"[2]; M, esophageal, 4000 mg/kg",0/4
same,Body weight (m ± SEM) in g. start,"[2]; M, esophageal, 4000 mg/kg",234.5 ± 13.8 g
same,Body weight (m ± SEM) in g. Termination,"[2]; M, esophageal, 4000 mg/kg",288.7 ± 13.8 g
same,Dead/Treated within 7 days,[2]; [12],0/4
same,Body weight (±SE) in g. start,[2]; [12],252.0 ± 16.6 g
same,Body weight (±SE) in g. Termination,[2]; [12],253.5 ± 12.1 g
same,Dead/Treated within 7 days,[2]; [13],0/4
same,Body weight (±SE) in g. start,[2]; [13],232.5 ± 5.9 g
same,Body weight (±SE) in g. Termination,[2]; [13],218.2 ± 7.0 g
same,Dead/Treated within 7 days,[2]; [14],0/4
same,Body weight (±SE) in g. start,[2]; [14],222.5 ± 6.2 g
same,Body weight (±SE) in g. Termination,[2]; [14],231.7 ± 15.7 g
same,Dead/Treated within 7 days,[2]; [15],2/4
same,Body weight (±SE) in g. start,[2]; [15],226.2 ± 6.8 g
same,Body Weight of Foetuses in g (m ± SE),[3],1.42 ± 0.05 g
same,No. of Foetuses with malformations,[3],0
same,No. of living Foetuses per Delivery (m ± SE),[3],10.3 ± 0.6
same,Pregnant/Treated Animals,[3],3/10
same,Dead/Treated within 7 days,[4]; 500 mg/kg,0/2
same,Body Weight in g. start,"[4]; 500 mg/kg, start",2000 to 2100 g
same,Dead/Treated within 7 days,[4]; 1000 mg/kg,0/4
same,Body Weight (m ± SE) in g. start,"[4]; 1000 mg/kg, start",2037 ± 104.3 g
same,Body Weight (m ± SE) in g. Termination,"[4]; 1000 mg/kg, termination",1922.5 ± 71.5 g
same,Dead/Treated within 7 days,[4]; 2000 mg/kg,0/2
same,"dead out of treated animals, within 4 days (footnote)","[4]; 2000 mg/kg, within 4 days",two dead out of seven treated animals
same,MIC,Treponema hyodysenteriae,0.1 µg/mL
same,"Average Percent Weight of Fresh Organs, Kidneys","[5]; 5 animals, NS",1.04 ± 0.03%
same,"Average Percent Weight of Fresh Organs, Liver","[5]; 5 animals, NS",4.54 ± 0.10%
same,"Average Percent Weight of Fresh Organs, Lung","[5]; 5 animals, NS",1.07 ± 0.09%
same,Body Weight in g (m ± SE) Start,[5]; start,204.1 ± 2.0 g
same,Body Weight in g (m ± SE) Termination,[5]; termination,210.6 ± 9.6 g
same,Dead/Treated,"[5]; D, death caused by a mistake in esophagus incannulation",1/6
same,nitrogenic (so in the source),General safety statement,not nitrogenic
same,Dead/Treated Animals after 7 days,"[6]; endoperitoneal, 250 mg/kg",0/18
same,Dead/Treated Animals after 7 days,"[6]; endoperitoneal, 500 mg/kg",6/12
same,Dead/Treated Animals after 2 days,"[6]; endoperitoneal, 1000 mg/kg, 2 days",6/6
same,Dead/Treated Animals after 7 days,"[6]; endoperitoneal, 1000 mg/kg",6/6
same,Dead/Treated Animals after 1 day,"[6]; endoperitoneal, 2000 mg/kg, 1 day",6/6
same,Dead/Treated Animals after 7 days,"[6]; endoperitoneal, 2000 mg/kg",6/6
same,Dead/Treated Animals after 7 days,"[6]; esophageal, 1000 mg/kg",0/12
same,Dead/Treated Animals after 7 days,"[6]; esophageal, 2000 mg/kg",0/12
same,Dead/Treated Animals after 4 days,"[6]; esophageal, 4000 mg/kg, 4 days",1/12
same,Dead/Treated Animals after 7 days,"[6]; esophageal, 4000 mg/kg",1/12
same,Dead/Treated within 21 days,[7]; 500 mg/kg,0/4
same,Dead/Treated within 21 days,[7]; 1000 mg/kg,1/4
same,Dead/Treated within 21 days,[7]; 2000 mg/kg,5/6
same,Dead/Treated within 21 days,[7]; 4000 mg/kg,6/6
same,growth of 3 of the organisms,"[8]; 10 mcg/ml, after 48 hours",no growth
same,growth of the remaining two organisms,[8]; 100 mcg/ml,only marginal growth
same,% Body Weight Change,[9]; [16],-8.1 ± 3.9%
same,Dead/Treated,[9]; [16],0/10
same,"Fresh Organ-to-Body Weight Ratio, Kidneys",[9]; [16],1.5 ± 0.1
same,"Fresh Organ-to-Body Weight Ratio, Liver",[9]; [16],5.9 ± 0.3
same,% Body Weight Change,"[9]; in H2O, 1 g/kg/day for 15 days",18.5 ± 0.75%
same,Dead/Treated,"[9]; in H2O, 1 g/kg/day for 15 days",2/12
same,% Body Weight Change,[9]; [17],16.27 ± 1.31%
same,Dead/Treated,[9]; [17],3/12
same,SGOT,[9]; in adraganth gum,132 Units/ml
same,SGPT,[9]; in adraganth gum,10 Units/ml
same,SGOT,[9]; in water,124 Units/ml
same,SGPT,[9]; in water,9 Units/ml
same,Urine Amount excreted by 6 animals in 6 hours,[10]; 250 mg/kg/day,6.5 mL
same,Dead/Treated,[10]; 250 mg/kg/day,0/10
same,Body Weight in g (m ± SE) Start,[10]; 250 mg/kg/day,27.3 ± 0.5 g
same,Body Weight in g (m ± SE) Termination,[10]; 250 mg/kg/day,26.7 ± 0.7 g
same,"Fresh Organ-to-Body-Weight Ratio, Heart",[10]; 250 mg/kg/day,0.60 ± 0.08
same,"Fresh Organ-to-Body-Weight Ratio, Kidneys",[10]; 250 mg/kg/day,0.87 ± 0.08
same,"Fresh Organ-to-Body-Weight Ratio, Liver",[10]; 250 mg/kg/day,4.57 ± 0.25
same,"Fresh Organ-to-Body-Weight Ratio, Lungs",[10]; 250 mg/kg/day,0.731 ± 0.035
same,Blood Glucose,[10]; 250 mg/kg/day,1.10
same,SGOT,[10]; 250 mg/kg/day,118 Units/ml
same,SGPT,[10]; 250 mg/kg/day,5 Units/ml
same,Urine Amount excreted by 6 animals in 6 hours,[10]; 500 mg/kg/day,7 mL
same,Dead/Treated,[10]; 500 mg/kg/day,2/10
same,Body Weight in g (m ± SE) Start,[10]; 500 mg/kg/day,30.4 ± 0.9 g
same,Body Weight in g (m ± SE) Termination,[10]; 500 mg/kg/day,30.0 ± 0.7 g
same,"Fresh Organ-to-Body-Weight Ratio, Heart",[10]; 500 mg/kg/day,0.47 ± 0.02
same,"Fresh Organ-to-Body-Weight Ratio, Kidneys",[10]; 500 mg/kg/day,1.07 ± 0.04
same,"Fresh Organ-to-Body-Weight Ratio, Liver",[10]; 500 mg/kg/day,4.66 ± 0.91
same,"Fresh Organ-to-Body-Weight Ratio, Lungs",[10]; 500 mg/kg/day,1.011 ± 0.110
same,Blood Glucose,[10]; 500 mg/kg/day,1.06
same,SGOT,[10]; 500 mg/kg/day,159 Units/ml
same,SGPT,[10]; 500 mg/kg/day,6 Units/ml
same,Body Weight of Foetuses in g (m ± SE),"Teratogenetic study, rat",7.08 ± 0.19 g
same,No. of Foetuses with malformations,"Teratogenetic study, rat",0
same,No. of living Foetuses per Delivery (m ± SE),"Teratogenetic study, rat",10.8 ± 0.86
same,Pregnant/Treated Animals,"Teratogenetic study, rat",7/10
same,number of young delivered live at birth,[11],comparable with controls
same,malformations,[11]; either group,No malformations
